Assay [1] has as its system APOAl mRNA levels in HepG2 cells. Put plainly: APOAl mRNA levels in HepG2 cells treated with compound (RT-QPCR). The settings on record: 48 hours, 10 μm, vs vehicle (DMSO 0.1%), FIG. 4. The format is cell-based. How it is done: HepG2 and CV1 cells (ATCC, Rockville, Md.) were maintained in Basic Eagle's medium (BME) supplemented with 2 mM glutamine, 1% non-essential amino acids and 10% (v/v) fetal calf serum (FCS) in an atmosphere of 5% CO2 at 37° C.
Total cellular RNA was extracted using TRIZOL (Invitrogen). Real time quantitative PCR (RT-QPCR) assays were performed using an Applied Biosystems 7900 sequence detector. Total RNA (1 μg) was reverse transcribed with random hexamers using Taqman reverse-transcription reagents kit (Applied Biosystems) following the manufacturer's protocol. RNA expression levels were determined by Sybr green assays as described. 18SrRNA transcript was used as an internal control to normalize the variations for RNA amounts. Gene expression levels are expressed relative to 18S rRNA. Apo Al, Apo B, SR-Bl, SHP, LRH-1 and CYP7α mRNA levels were measured using the following oligonucleotides: For 18S: 5′-[…]-3′ and 5′-[…]-3′; for APO Al: 5′-[…]-3′ and 5′-[…]-3′; for Apo B: 5′-[…]-3′ and 5′-[…]-3′; for SR-Bl: 5′-[…]-3′ and 5′-[…]-3′; for SHP: 5′-[…]-3′ and 5′-[…]-3′; for LRH-1: 5′-[…]-3′ and 5′-[…]-3′; for CYP7α:5′-[…]-3′ and 5′-[…]-3′.
HepG2 cells, cultured in 24-well plates, were treated for 48 hours with Compound I, 10 μm or vehicle (DMSO 0.1%) prior to harvest and determination of APOAl mRNA levels by RT-QPOCR as described in Example 1 above.

Assay [2] concerns the target T1, Human LRH-1 Ligand Binding Domain (Homo sapiens, UniProt O00482).
T1 construct: made in house; host or cells: E. coli BL21(DE3), pRSETa vector
Put plainly: LRH-1 LBD / TIF2 Box3 coactivator peptide recruitment assay (Eu/APC, Lance mode). The settings on record: n of 44. The format is biochemical. From the text: Human LRH-1 Ligand Binding Domain (LRH1 LBD) was expressed in E.coli strain BL21(DE3) as an amino-terminal polyhistidine tagged fusion protein. Expression was under the control of an IPTG inducible T7 promoter. DNA encoding this recombinant protein was subcloned into the pRSETa expression vector (Invitrogen). Sequence encoding the modified polyhistidine tag ([…]) was fused in frame to sequence encoding residues 248-501 of LRH-1. The coding sequence of Human LRH-1 LBD was derived from Genbank accession number U—93553.
Purified LRH-1 LBD was desalted/buffer exchanged using PD-10 gel filtration columns into PBS [100 mM NaPhosphate, pH 7.2, 150 mM NaCl]. LRH-1 LBD was diluted to approximately 10 microM in PBS and five-fold molar excess of NHS-LC-Biotin (Pierce) was added in a minimal volume of PBS. This solution was incubated with gentle mixing for 60 minutes at ambient room temperature. The biotinylation modification reaction was stopped by the addition of 2000× molar excess of Tris-HCl, pH 8. […]
The above solutions are gently mixed together to give a final preparation of 5E-9 M (5 nM) APC-labelled LRH1 LBD and 1E-8 M […] Europium-labelled TIF2 box3 peptide. […] The plates were incubated for 1 hr then read on Wallac Victor2 V in Lance mode for EU/APC. […]

Structures are written as SMILES.

T1 sequence (O00482 288-541): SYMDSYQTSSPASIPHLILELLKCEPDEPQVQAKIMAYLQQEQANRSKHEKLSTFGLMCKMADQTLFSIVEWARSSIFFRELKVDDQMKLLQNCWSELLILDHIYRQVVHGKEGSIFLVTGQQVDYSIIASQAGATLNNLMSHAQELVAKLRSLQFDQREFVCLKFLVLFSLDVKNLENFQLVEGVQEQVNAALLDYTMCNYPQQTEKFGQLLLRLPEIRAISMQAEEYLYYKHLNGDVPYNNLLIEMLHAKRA
T1 sequence (as listed by the source partner): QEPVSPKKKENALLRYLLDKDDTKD

Turning to `CCC/C=C(\CCC)C1=C(c2ccccc2)[C@@]2(Nc3ccccc3)CCC[C@H]2C1` [Compound 1], the “APO Al gene expression (APOAl mRNA levels)” value in assay [1] is on record as “Induces APO Al Gene Expression”. For the same molecule, in assay [2] (LRH1 agonist activity, TIF2 Box3 peptide recruitment, read-out: ave pEC50 (converted)), the EC50 is 0.257 µM. The “ave % basal (maximum observed increase in agonist activity compared to the vehicle control)” value in assay [2] amounted to 277 % basal.

(Values after US20080227864A1, “Lhr1 Activators as Medicaments” (priority 2004, published 2008).)
